US7700592B2, “α2C adrenoreceptor agonists” (Schering Corporation, priority 2005, dated 2010)

Target: T1, α2C receptor (Homo sapiens, UniProt P18825)
T1 sequence (P18825 1-462): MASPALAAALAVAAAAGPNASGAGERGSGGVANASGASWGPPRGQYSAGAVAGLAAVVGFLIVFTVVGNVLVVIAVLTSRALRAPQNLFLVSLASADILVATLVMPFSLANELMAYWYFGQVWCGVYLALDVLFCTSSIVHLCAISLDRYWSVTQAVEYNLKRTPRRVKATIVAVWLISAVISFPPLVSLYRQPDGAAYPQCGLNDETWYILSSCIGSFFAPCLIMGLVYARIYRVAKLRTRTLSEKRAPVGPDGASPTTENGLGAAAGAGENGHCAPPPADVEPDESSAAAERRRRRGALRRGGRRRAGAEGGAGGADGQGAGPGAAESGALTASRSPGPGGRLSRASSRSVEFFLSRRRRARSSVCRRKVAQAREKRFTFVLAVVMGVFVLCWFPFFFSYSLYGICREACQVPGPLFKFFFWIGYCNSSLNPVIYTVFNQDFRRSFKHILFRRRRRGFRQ
Experiment: GTPγS assay, efficacy agonist activity (Emax) for α2C
Type: biochemical
Details: active agonist = efficacy at α2C ≧30% Emax; functionally selective = additionally efficacy at α2A ≦30% Emax (GTPγS assay)
Source text: For the purposes of this present invention, a compound is defined to be an active agonist of the α2C receptor subtype if the compound's efficacy at the α2C receptor is ≧30% Emax (GTPγS assay). A compound is a functionally selective agonist of the α2C receptor subtype over the α2A receptor subtype if the compound's efficacy at the α2C receptor is ≧30% Emax (GTPγS assay) and its efficacy at the α2A receptor is ≦30% Emax (GTPγS assay).
Efficacy agonist activity values (Emax, GTPγS assay) for α2C were determined by following the general procedure detailed by Umland et al (“Receptor reserve analysis of the human α2c-adrenoceptor using [^35S]GTPγS and cAMP functional assays” European Journal of Pharmacology 2001, 411, 211-221). For the purposes of the present invention, a compound is defined to be an active agonist of the α2C receptor subtype if the compound's efficacy at the α2C receptor is ≧30% Emax (GTPγS assay). A compound is a functionally selective agonist of the α2C receptor subtype over the α2A receptor subtype if the compound's efficacy at the α2C receptor is […] Emax (GTPγS assay) and its efficacy at the α2A receptor is ≦30% Emax (GTPγS assay).

Row | SMILES | Efficacy agonist activity (Emax, GTPγS assay) for α2C: evaluated as active or functionally selective agonist
1 | Nc1ccc2c(c1)N(Cc1c[nH]cn1)CCO2 [Compound 3E] | active or functionally selective agonists of the α2C receptor subtype
2 | O=C(Nc1ccc2c(c1)N(Cc1c[nH]cn1)CCO2)OCC1CCC1 [Compound 315] | active or functionally selective agonists of the α2C receptor subtype
3 | CCN(C(=O)NC)c1ccc2c(c1)N(C(C#N)c1c[nH]cn1)CCO2 (centres unmarked) [Compound 169] | active or functionally selective agonists of the α2C receptor subtype
4 | CCN(C(=O)COCCOC)c1ccc2c(c1)N(Cc1c[nH]cn1)CCO2 [Compound 165] | active or functionally selective agonists of the α2C receptor subtype
5 | c1cnc2c(c1)OCCN2Cc1c[nH]cn1 [Compound 117] | active or functionally selective agonists of the α2C receptor subtype
6 | O=C(Nc1ccc2c(c1)N(Cc1c[nH]cn1)CCO2)OCc1cccnc1 [Compound 318] | active or functionally selective agonists of the α2C receptor subtype
7 | CNC(=O)Nc1ccc2c(c1)N(Cc1c[nH]cn1)CCO2 [Compound 5] | active or functionally selective agonists of the α2C receptor subtype
8 | O=C(Nc1ccc2c(c1)N(Cc1c[nH]cn1)CCO2)OCc1ccnc(Cl)c1 [Compound 314] | active or functionally selective agonists of the α2C receptor subtype
9 | CCN(C(=O)OC)c1ccc2c(n1)N(Cc1c[nH]cn1)CCO2 [Compound 53] | active or functionally selective agonists of the α2C receptor subtype
10 | CSCCOC(=O)Nc1ccc2c(c1)N(Cc1c[nH]cn1)CCO2 [Compound 249] | active or functionally selective agonists of the α2C receptor subtype
11 | N=C(N)c1cc(F)c2c(c1)N(Cc1c[nH]cn1)CCO2 [Compound 152] | active or functionally selective agonists of the α2C receptor subtype
12 | O=C(Cc1ccc2c(c1)N(Cc1c[nH]cn1)CCO2)NCc1ccccc1 [Compound 30] | active or functionally selective agonists of the α2C receptor subtype
13 | CCN(C(=O)NC)c1ccc2c(c1)N(Cc1c[nH]cn1)CCO2 [Compound 38] | active or functionally selective agonists of the α2C receptor subtype
14 | COC(=O)Nc1ccc2c(c1)N(Cc1c[nH]cn1)CCO2 [Compound 3] | active or functionally selective agonists of the α2C receptor subtype
15 | COC(=O)Nc1ccc2c(c1)N(C(C#N)c1c[nH]cn1)CCO2 (centres unmarked) [Compound 171] | active or functionally selective agonists of the α2C receptor subtype
16 | O=C(Nc1ccc2c(c1)N(Cc1c[nH]cn1)CCO2)OCc1cc2cccnc2s1 [Compound 311] | active or functionally selective agonists of the α2C receptor subtype
17 | CS(=O)(=O)CCOC(=O)Nc1ccc2c(c1)N(Cc1c[nH]cn1)CCO2 [Compound 250] | active or functionally selective agonists of the α2C receptor subtype
18 | CCN(C(=O)n1ccnc1)c1ccc2c(c1)N(Cc1c[nH]cn1)CCO2 [Compound 64A] | active or functionally selective agonists of the α2C receptor subtype
19 | O=C(NCc1ccc(F)cc1)Nc1ccc2c(c1)N(Cc1c[nH]cn1)CCO2 [Compound 307] | active or functionally selective agonists of the α2C receptor subtype
20 | O=C(NCc1cccc(F)c1)Nc1ccc2c(c1)N(Cc1c[nH]cn1)CCO2 [Compound 308] | active or functionally selective agonists of the α2C receptor subtype
21 | CCOC(=O)N(C)c1ccc2c(c1)N(Cc1c[nH]cn1)CCO2 [Compound 8] | active or functionally selective agonists of the α2C receptor subtype

Row | SMILES | Efficacy agonist activity (Emax, GTPγS assay) for α2C: evaluated as active or functionally selective agonist
22 | Cc1cc([N+](=O)[O-])cc2c1OCCN2Cc1c[nH]cn1 [Compound 129] | active or functionally selective agonists of the α2C receptor subtype
23 | CCNC(=O)N(C)c1ccc2c(c1)N(Cc1c[nH]cn1)CCO2 [Compound 7] | active or functionally selective agonists of the α2C receptor subtype
24 | CN1CCN(Cc2c[nH]cn2)c2ccccc21 [Compound 26] | active or functionally selective agonists of the α2C receptor subtype
25 | CC#CCOC(=O)N(C)c1ccc2c(c1)N(Cc1c[nH]cn1)CCO2 [Compound 262] | active or functionally selective agonists of the α2C receptor subtype
26 | Brc1ccc2c(n1)N(Cc1c[nH]cn1)CCO2 [Compound 54] | active or functionally selective agonists of the α2C receptor subtype
27 | CCN(C(=O)OCc1ccccn1)c1ccc2c(c1)N(Cc1c[nH]cn1)CCO2 [Compound 64] | active or functionally selective agonists of the α2C receptor subtype
28 | Cc1cc(COC(=O)Nc2ccc3c(c2)N(Cc2c[nH]cn2)CCO3)no1 [Compound 317] | active or functionally selective agonists of the α2C receptor subtype
29 | N#CCCOC(=O)Nc1ccc2c(c1)N(Cc1c[nH]cn1)CCO2 [Compound 247] | active or functionally selective agonists of the α2C receptor subtype
30 | COC(=O)Nc1cc(O)c2c(c1)N(Cc1c[nH]cn1)CCO2 [Compound 57] | active or functionally selective agonists of the α2C receptor subtype
31 | CSc1ccc2c(c1)N(Cc1c[nH]cn1)CCO2 [Compound 14B] | active or functionally selective agonists of the α2C receptor subtype
32 | CCN(c1ccc2c(c1)N(Cc1c[nH]cn1)CCO2)c1cnccn1 [Compound 329] | active or functionally selective agonists of the α2C receptor subtype
33 | CCN(C(=O)OCc1ccncc1N)c1ccc2c(c1)N(Cc1c[nH]cn1)CCO2 [Compound 279] | active or functionally selective agonists of the α2C receptor subtype
34 | COC(=O)N(C)c1ccc2c(c1)N(Cc1c[nH]cn1)CCO2 [Compound 6E] | active or functionally selective agonists of the α2C receptor subtype
35 | CCOC(=O)Cc1ccc2c(c1)N(Cc1c[nH]cn1)CCO2 [Compound 29] | active or functionally selective agonists of the α2C receptor subtype
36 | CCN(C(=O)OCc1cc(C)nn1C)c1ccc2c(c1)N(Cc1c[nH]cn1)CCO2 [Compound 323] | active or functionally selective agonists of the α2C receptor subtype
37 | COCC(=O)N(C)c1ccc2c(c1)N(Cc1c[nH]cn1)CCO2 [Compound 242] | active or functionally selective agonists of the α2C receptor subtype
38 | COC(=O)Nc1ccc2c(n1)N(Cc1c[nH]cn1)CCO2 [Compound 137] | active or functionally selective agonists of the α2C receptor subtype
39 | O=[N+]([O-])c1cc(F)c2c(c1)N(Cc1c[nH]cn1)CCO2 [Compound 19D] | active or functionally selective agonists of the α2C receptor subtype
40 | c1c[nH]c(-c2ccc3c(c2)N(Cc2c[nH]cn2)CCO3)c1 [Compound 15] | active or functionally selective agonists of the α2C receptor subtype
41 | CCN(C(=O)COC)c1ccc2c(c1)N(Cc1c[nH]cn1)CCO2 [Compound 163] | active or functionally selective agonists of the α2C receptor subtype
